Measured values as given in patent publication US8940510B2, “Spray dried microbes and methods of preparation and use” (University of Iowa Research Foundation, priority 2007, dated 2015).

Experiments:
glycolate oxidase [1] = target: T1, glycolate oxidase (Spinacia oleracea, UniProt P05414); experiment: Glycolate oxidase (DCIP) assay on Pichia pastoris whole-cell biocatalyst; format: biochemical, spinach; conditions: racemic substrate, lactic acid is 100%; for Relative GO activity, Permeabilized: permeabilized cells; for Relative GO activity, Spray-dried: spray-dried cells
T1 construct: expressed in transfected cells; host or cells: Pichia pastoris, single recombinant (NRRL Y-21001) or double recombinant, spray-dried and/or BAC-permeabilised whole cells
T1 sequence (P05414 1-369): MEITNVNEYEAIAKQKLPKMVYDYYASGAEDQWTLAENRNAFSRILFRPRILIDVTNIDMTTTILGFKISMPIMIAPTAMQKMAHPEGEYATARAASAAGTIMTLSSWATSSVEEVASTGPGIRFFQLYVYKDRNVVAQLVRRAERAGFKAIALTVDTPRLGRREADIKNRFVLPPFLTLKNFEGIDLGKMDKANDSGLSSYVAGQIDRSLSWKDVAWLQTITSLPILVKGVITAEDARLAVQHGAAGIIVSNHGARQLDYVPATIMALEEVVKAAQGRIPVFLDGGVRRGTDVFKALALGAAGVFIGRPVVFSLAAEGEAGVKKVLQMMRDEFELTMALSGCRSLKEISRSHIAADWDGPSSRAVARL
Description: Glycolate Oxidase Assay • 1. Weigh approximately 40 mg spray-dried cells (record exact weight) into a 10 mL centrifuge tube. • 2. Add 8.0 mL of DCIP assay solution (0.12 mM 2,6-dichloroindophenol and 80 mM Tris, pH 8.3). A DCIP solution that is stored at 4° C. may be used for up to 2 weeks. • 3. Mix to suspend cells, then remove 50 μL of suspension (about 0.25 mg dry cells) and place in 3.0 mL quartz cuvette with flea stirrer. Add 2.0 mL of DCIP assay solution. Cap with septum and bubble with nitrogen for 3 minutes. • 4. […]
In initial work (in the absence of spray-drying), after fermentation, cells were recovered by solid/liquid separation, and benzalkonium chloride (BAC) detergent was used to permeabilize cells for the enzyme reaction. […] Thus, another experiment (see below) compared spray-dried cells to several other methods of cell preparation: a) not spray-dried and not BAC treated, b) not spray-dried and treated with BAC, and c) spray-dried and treated with BAC. The spray-dried cells were treated with BAC after spray-drying to determine if spray-drying completely permeabilized the cells.
Detergent Cell Permeabilization • 1. Prepare mixture of 10 weight % cells/volume 50 mM phosphate buffer (pH 7.0) at room temperature. Add 0.1% (w/v) benzalkonium chloride. • 2. Stir or mix slowly for 60 minutes at room temperature, 25° C. • 3. Centrifuge (9950×g for 10 minutes at 5° C.), decant, and re-suspend cells three times (10% w/v) in 50 mM phosphate buffer (pH 7.0) at 5° C., centrifuge, decant. • 4. Permeabilized cells may be used immediately or stored up to one year at −80° C. prior to use.

glycolate oxidase [2] = conditions: 100 mM; enzyme extracted from tobacco leaves; cited from earlier work

| Compound | Relative GO activity, Permeabilized (glycolate oxidase [1]) [%] | Relative GO activity, Spray-dried (glycolate oxidase [1]) [%] | Effect on the catalytic action of glycolate oxidase (glycolate oxidase [2]) |
| --- | --- | --- | --- |
| Trifluorolactic acid | 11 | 2 | – |
| CC(C)C(O)C(=O)O (racemic) [2-Hydroxy-3-methylbutyric acid] | 1 | 2 | – |
| O=C(O)C(O)Cc1c[nH]c2ccccc12 (racemic) [3-Indolelactic acid] | 18 | 26 | – |
| CC(O)C(=O)O (racemic) [Lactic acid] | 100 | 100 | – |
| O=C(O)C(O)Cc1ccc(O)cc1 (centres unmarked) [p-Hydroxyphenyllactic acid] | 26 | 38 | – |
| O=C(O)C(O)Cc1ccccc1 (racemic) [3-Phenyllactic acid] | 25 | 37 | – |
| CCC(O)C(=O)O (racemic) [2-Hydroxybutyric acid] | 91 | 129 | – |
| O=C(O)C(O)CCl (racemic) [β-Chlorolactic acid] | 100 | 121 | – |
| CCCCCCCCC(O)C(=O)O (racemic) [2-Hydroxydecanoic acid] | 40 | 49 | – |
| O=C(O)C(=O)O [Oxalic acid] | – | – | inhibit |
| O=C(O)C(O)c1ccccc1 (racemic) [Mandelic acid] | 3 | 3 | – |
| O=C(O)CO [Glycolic acid] | 90 | 94 | – |
